Experimental data from ChEMBL document CHEMBL1201862, “PubChem BioAssay data set” (2004).
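96-well plates; 48 h exposure; 5 concentrations. Endpoints by linear interpolation between flanking doses. Not reached: highest tested concentration assigned. At the GI50, growth is halved.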 Activity calls are given as the source filed them. Rule as the data show it: active = GI50 up to about 1.1 µM and inactive = higher.

Columns and labels:
Test in all cases: NCI-60 cell line screen, 48 h
A549 = test system: A549
ACHN = test system: ACHN
BT-549 = test system: BT-549
CAKI-1 = test system: CAKI-1
COLO 205 = test system: COLO 205
HOP-62 = test system: HOP-62
HT-29 = test system: HT-29
MOLT-4 = test system: MOLT-4
Malme-3M = test system: Malme-3M
NCI-H23 = test system: NCI-H23
NCI-H522 = test system: NCI-H522
NCI/ADR-RES = test system: NCI/ADR-RES
OVCAR-3 = test system: OVCAR-3
RXF 393 = test system: RXF 393
SF-295 = test system: SF-295
SNB-19 = test system: SNB-19
SNB-75 = test system: SNB-75
T47D = test system: T47D
UACC-62 = test system: UACC-62
UO-31 = test system: UO-31

| SMILES | GI50 (A549) | GI50 (ACHN) | GI50 (BT-549) | GI50 (CAKI-1) | GI50 (COLO 205) | GI50 (HOP-62) | GI50 (HT-29) | GI50 (MOLT-4) | GI50 (Malme-3M) | GI50 (NCI-H23) | GI50 (NCI-H522) | GI50 (NCI/ADR-RES) | GI50 (OVCAR-3) | GI50 (RXF 393) | GI50 (SF-295) | GI50 (SNB-19) | GI50 (SNB-75) | GI50 (T47D) | GI50 (UACC-62) | GI50 (UO-31) |
| --- | --- | --- | --- | --- | --- | --- | --- | --- | --- | --- | --- | --- | --- | --- | --- | --- | --- | --- | --- | --- |
| CC(C)NC(=O)CN1CCN(C2=CC(=O)c3c(O)ccc(O)c3C2=O)CC1 | 16.4 µM (inactive) | 21.2 µM (inactive) | 17.7 µM (inactive) | 26.2 µM (inactive) | 3 µM (inactive) | 18.2 µM (inactive) | 3.62 µM (inactive) | 17 µM (inactive) | 2.22 µM (inactive) | 9.4 µM (inactive) | 18.2 µM (inactive) | 3.9 µM (inactive) | 2.58 µM (inactive) | 17.2 µM (inactive) | 15.6 µM (inactive) | 18.7 µM (inactive) | 18.2 µM (inactive) | 8.69 µM (inactive) | 5.18 µM (inactive) | 18.3 µM (inactive) |
| Cc1ccc(C)c(/C(=N\N=C(N)N)C2CC2)c1 | 43.3 µM (inactive) | 42.7 µM (inactive) | 25.5 µM (inactive) | > 100 µM (inactive) | 35.1 µM (inactive) | 35.8 µM (inactive) | 29.3 µM (inactive) | 35.2 µM (inactive) | 41.5 µM (inactive) | 20.7 µM (inactive) | 28.6 µM (inactive) | 58.1 µM (inactive) | 94.6 µM (inactive) | > 100 µM (inactive) | 42.6 µM (inactive) | 48.9 µM (inactive) | 37.5 µM (inactive) | 45.5 µM (inactive) | 35.6 µM (inactive) | 59.8 µM (inactive) |
| N=c1oc2cc(O)ccc2cc1C(=O)Nc1cccc2ccccc12 | 5.37 µM (inactive) | 3.99 µM (inactive) | 2.43 µM (inactive) | 5.97 µM (inactive) | 15.2 µM (inactive) | 11.3 µM (inactive) | 7.6 µM (inactive) | 2.7 µM (inactive) | 0.883 µM (active) | 3.7 µM (inactive) | 1.65 µM (inactive) | 1.82 µM (inactive) | 7.13 µM (inactive) | 4.91 µM (inactive) | 5.18 µM (inactive) | 4.68 µM (inactive) | 3.54 µM (inactive) | 3.5 µM (inactive) | 3.23 µM (inactive) | 4.7 µM (inactive) |
| NC(=S)NC/C=C/Cl | > 100 µM (inactive) | > 100 µM (inactive) | > 100 µM (inactive) | > 100 µM (inactive) | > 100 µM (inactive) | > 100 µM (inactive) | > 100 µM (inactive) | > 100 µM (inactive) | > 100 µM (inactive) | > 100 µM (inactive) | 86.5 µM (inactive) | > 100 µM (inactive) | > 100 µM (inactive) | > 100 µM (inactive) | > 100 µM (inactive) | > 100 µM (inactive) | > 100 µM (inactive) | > 100 µM (inactive) | > 100 µM (inactive) | > 100 µM (inactive) |
| COc1ccc2nc3cc(Cl)ccc3c(Nc3ccc(O)c(CN4CCN(C)CC4)c3)c2c1 | 1.87 µM (inactive) | 1.64 µM (inactive) | 20.3 µM (inactive) | 1.92 µM (inactive) | 1.63 µM (inactive) | 2.06 µM (inactive) | 1.67 µM (inactive) | 1.93 µM (inactive) | 1.79 µM (inactive) | 1.89 µM (inactive) | 1.78 µM (inactive) | 2.08 µM (inactive) | 1.92 µM (inactive) | 1.69 µM (inactive) | 1.91 µM (inactive) | 2.43 µM (inactive) | 1.62 µM (inactive) | 2.09 µM (inactive) | 1.72 µM (inactive) | 1.9 µM (inactive) |
| CC(=O)Nc1cc(Cl)cc(Cl)c1O | > 100 µM (inactive) | > 100 µM (inactive) | > 100 µM (inactive) | > 100 µM (inactive) | > 100 µM (inactive) | > 100 µM (inactive) | > 100 µM (inactive) | > 100 µM (inactive) | > 100 µM (inactive) | > 100 µM (inactive) | > 100 µM (inactive) | > 100 µM (inactive) | > 100 µM (inactive) | > 100 µM (inactive) | > 100 µM (inactive) | > 100 µM (inactive) | 97.1 µM (inactive) | > 100 µM (inactive) | > 100 µM (inactive) | > 100 µM (inactive) |
| NC1Cc2ccccc2OC1=O (stereo not given) | > 100 µM (inactive) | > 100 µM (inactive) | > 100 µM (inactive) | > 100 µM (inactive) | > 100 µM (inactive) | > 100 µM (inactive) | > 100 µM (inactive) | > 100 µM (inactive) | > 100 µM (inactive) | > 100 µM (inactive) | > 100 µM (inactive) | > 100 µM (inactive) | > 100 µM (inactive) | > 100 µM (inactive) | > 100 µM (inactive) | > 100 µM (inactive) | > 100 µM (inactive) | > 100 µM (inactive) | > 100 µM (inactive) | > 100 µM (inactive) |
| C[N+]12CCCCC1C(CN1C(=O)c3ccccc3C1=O)CCC2 (stereo not given) | > 100 µM (inactive) | > 100 µM (inactive) | > 100 µM (inactive) | > 100 µM (inactive) | > 100 µM (inactive) | > 100 µM (inactive) | > 100 µM (inactive) | > 100 µM (inactive) | > 100 µM (inactive) | > 100 µM (inactive) | > 100 µM (inactive) | > 100 µM (inactive) | > 100 µM (inactive) | > 100 µM (inactive) | > 100 µM (inactive) | > 100 µM (inactive) | > 100 µM (inactive) | > 100 µM (inactive) | > 100 µM (inactive) | > 100 µM (inactive) |
| COc1cc(S(=O)(=O)Nc2ccc(-c3csc(/N=C\C=C\c4ccccc4)n3)cc2)ccc1Cl | 80.5 µM (inactive) | 41.2 µM (inactive) | 39.1 µM (inactive) | > 100 µM (inactive) | 36.7 µM (inactive) | 43 µM (inactive) | > 100 µM (inactive) | 38.1 µM (inactive) | 37.4 µM (inactive) | 30.9 µM (inactive) | 24.5 µM (inactive) | 59 µM (inactive) | > 100 µM (inactive) | 16.1 µM (inactive) | 74.5 µM (inactive) | 84.3 µM (inactive) | > 100 µM (inactive) | 26.6 µM (inactive) | 37.9 µM (inactive) | 44.5 µM (inactive) |
| COC(=O)C1=C(C)N2[C@H](C(=O)O)CS[C@@]2(C)[C@H](C(=O)OC)[C@H]1c1cccc([N+](=O)[O-])c1 | > 100 µM (inactive) | > 100 µM (inactive) | > 100 µM (inactive) | > 100 µM (inactive) | > 100 µM (inactive) | > 100 µM (inactive) | > 100 µM (inactive) | > 100 µM (inactive) | > 100 µM (inactive) | > 100 µM (inactive) | > 100 µM (inactive) | > 100 µM (inactive) | > 100 µM (inactive) | > 100 µM (inactive) | > 100 µM (inactive) | > 100 µM (inactive) | > 100 µM (inactive) | > 100 µM (inactive) | > 100 µM (inactive) | > 100 µM (inactive) |
